Results reported in PubChem BioAssay AID493002 (Sanford-Burnham Center for Chemical Genomics, 2010).

Test system: S. cerevisiae tim23-1 mutant growth, luminescence
Assay: potency against tim23-1 yeast growth – luminescence, uHTS hits, dose response (AID 493002);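 further: yeast grown roughly 22 hours at 25 °C before the luminescence read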

Row | SMILES | IC50 [µM]
1 | COC(=O)c1cccc(NC(=O)c2ccc(OC)c(Cl)c2)c1 | 20.6
2 | CNC(=S)N/N=C/c1cc(Br)cc(Br)c1O | 3.14
3 | Cc1ccc(OCc2cc(C(=O)NCc3cnn(-c4cccc(F)c4)c3)no2)cn1 | 14.8
4 | CCOC(=O)c1cccc(NC(=O)c2cc3ccccc3o2)c1 | 14.3
5 | COc1cc(NC(=O)c2cccs2)ccc1NC(=O)c1ccccc1Cl | 6.75
6 | CSc1nnc(C(C)(C)C)c(=O)n1/N=C/c1ccccc1 | 13.6
7 | O=C(N/N=C/c1ccc([N+](=O)[O-])s1)c1ccncc1 | 4.88
8 | CCN(CC)c1ccc(C(=O)N/N=C/c2ccccc2OC(F)F)cc1 | 15.1
9 | Cc1[nH]c2ccccc2c1C(=O)/C=C/c1ccccc1 | 9.05
10 | COCCn1c(C)cc(C(=O)COC(=O)c2ccc([N+](=O)[O-])o2)c1C | 6.98
11 | COC(=O)c1ccc(NC(=O)CSc2nc(=O)n3cccc(C)c3n2)cc1 | 22.7
12 | CCN1C(=O)/C(=C2\SC(N3CCCCC3)=NC2=O)c2ccccc21 | 17.8
13 | Brc1ccc(-n2cnc(-c3ccccc3)c2)cc1 | 12.5
14 | Cc1nc(-c2ccc(NC(=O)C3CC3)cc2)cs1 | 20.2
15 | Cc1cc(Nc2ccccc2)nn1C(=O)c1ccccc1 | 12
16 | Cc1ccc(NC(=O)CN2C(=O)CN=C(c3ccccc3)c3cc(Cl)ccc32)cc1 | 13.1
17 | CSC1=N/C(=C\c2ccc(C)cc2)C(=O)S1 | 10.3
18 | Oc1ccc(N=Nc2ccccc2)cc1 | 15.3
19 | Cn1c(=O)c(C(=O)Nc2ncccn2)c(O)c2ccccc21 | 8.49
20 | Oc1ccc(Br)cc1/C=N/Nc1ccccn1 | 6.87
21 | CCNc1nc(N)c(C(=O)C23CC4CC(CC(C4)C2)C3)s1 | 12.4
22 | Cc1cccc(OCCN2C(=O)C(=O)c3cc(C)ccc32)c1 | 9.52
23 | COCCNC(=O)/C(C#N)=C/c1ccc(OCc2ccc(F)cc2)cc1 | 10.5
24 | COc1ccc(NC(=O)Nc2nc3c(s2)CCCC3)cc1 | 7.73
25 | c1ccc2[nH]c(CSc3nc4ccccc4o3)nc2c1 | 12.3

Row | SMILES | IC50 [µM]
26 | C[C@@]12C(=O)Nc3ccc(Br)cc3C(=O)N1[C@H]1c3ccccc3OC[C@@H]1[C@@H]2c1ccccc1 | 2.66
27 | O=C(Nc1ccc(-c2cn3ccccc3n2)cc1)c1cccs1 | 2.92
28 | CCCN(C(=O)c1ccc([N+](=O)[O-])c(C)c1)c1c(N)n(Cc2ccccc2)c(=O)[nH]c1=O | 5.69
29 | Cc1csc2nc(O)c(C(=O)NC3CCCCC3)c(=O)n12 | 8.51
30 | c1ccc(Nc2nc(-c3ccccc3)nc3ccccc23)cc1 | 5.08
31 | COc1cc(C2CC(c3cccs3)=NN2C(=O)CCl)ccc1OC(F)F (stereo not given) | 21.9
32 | Cc1ccc(NC(=O)c2ccc(Cl)c(NC(=O)c3cccs3)c2)cc1 | 14.5
33 | COc1ccc(C(C[N+](=O)[O-])c2c(C)[nH]n(-c3ccccc3)c2=O)cc1 (stereo not given) | 7.55
34 | O=C(Nc1cn(-c2ccccc2)nc1-c1cccs1)c1ccco1 | 29
35 | CC1=CC(C)(C)N(C(=O)c2ccc(F)cc2)c2cc3c(cc21)OCO3 | 14.3
36 | O=C(Nc1ccc(Cl)cc1)c1cccs1 | 11
37 | OCCCNc1cc(-c2ccccc2)nc2cc(-c3ccc(F)cc3)nn12 | 33.3
38 | Nc1ccc2nc(SCc3ccccc3F)sc2c1 | 7.18
39 | Cc1cccn2c(=O)c(C(=O)NC3CCCCC3)c(O)nc12 | 15.6
40 | Cc1ccc2c(c1)C(=O)C(=O)N2c1ccc(Cl)cc1 | 11.7
41 | C/C(=N\Nc1cc(N2CCCCC2)nc(C)n1)c1ccc(Br)cc1 | 14.2
42 | CCc1sc(C(=O)Nc2nccs2)cc1C | 16
43 | Cc1ccc(SCC(=O)OCn2nnc3ccccc3c2=O)cc1C | 9.99
44 | CCOC(=O)c1c(-c2ccccc2)oc2ccc(O)cc12 | 7.92
45 | COc1ccc(C(C[N+](=O)[O-])c2c(-c3ccccc3)cc3ccccn23)cc1OC (stereo not given) | 12.7
46 | CCOc1nc2ccccc2cc1C=O | 3.43
47 | O=C(N/N=C/c1cc(Br)cc(Br)c1O)c1cccc(N2CCCC2=O)c1 | 6.37
48 | CC1CCN(c2ccc(-c3cccs3)nn2)CC1 | 6.21
49 | O=C(Nc1nccs1)c1ccc(Cl)s1 | 7.48
50 | CCn1c(N2CCN(S(=O)(=O)c3ccc(OC)cc3)CC2)nc2ccccc21 | 8.88

Row | SMILES | IC50 [µM]
51 | O=C(COC(=O)CC1CCCC1)Nc1ccc(Cl)cc1 | 13.2
52 | Cc1ccc2nc(NC(=O)Cn3nc(C)c([N+](=O)[O-])c3C)sc2c1 | 6.13
53 | O=C(N/N=C/c1coc2ccc(Cl)cc2c1=O)c1cc(O)cc(O)c1 | 5.83
54 | CCOC(=O)c1c(C)oc2c(F)c(F)c(F)c(F)c2c1=O | 13.1
55 | O=C(c1cc(-c2cccc(O)c2)on1)N1CCc2ccccc2C1 | 16
56 | O=C1c2ccccc2-c2n[nH]c3cccc1c23 | 6.31
57 | O=C(Nc1ccc(-c2ccc(N3CCCCC3)nn2)cc1)c1ccco1 | 10
58 | Cc1cnc(NC(=O)c2cc3c(s2)CCCC3)s1 | 14.5
59 | COC(=O)N/N=C/c1ccc(-c2cc(Cl)cc(Cl)c2)o1 | 8.73
60 | Cn1cccc1-c1nc2ccc(NC(=O)c3cccs3)cc2[nH]1 | 10.8
61 | COc1ccc(/C=C(\C#N)c2nc3ccccc3[nH]2)cc1O | 14.8
62 | c1ccc(-c2cc3ccccc3cn2)cc1 | 8.34
63 | Cc1ccc(C(=O)C(C)OC(=O)c2cc3cc([N+](=O)[O-])ccc3oc2=O)cc1 (stereo not given) | 14.9
64 | Oc1ccc(Cl)cc1CNc1cnc2ccccc2c1 | 15.3
65 | COc1cc2c(cc1OC)/C(=C/c1ccc(Cl)cc1)C(=O)OC2 | 8.86
66 | CCC(C)NC(=O)c1c(N)n(CCCOC)c2nc3ccccc3nc12 (stereo not given) | 14.1
67 | C=CCn1c(SCc2cc(=O)n3ccsc3n2)nc2cc(Cl)ccc2c1=O | 6.15
68 | O=Cc1sc(Nc2ccccc2)nc1Cl | 11.7
69 | C/C=C/c1ccc(OCCOc2cc(C=O)ccc2OC)c(OC)c1 | 8.44
70 | Cc1occc1C(=O)N/N=C/C(Br)=C/c1ccccc1 | 9.06
71 | O=C(CN1C(=O)S/C(=C/c2ccncc2)C1=O)Nc1ccccc1 | 13.5
72 | Cc1cccc(N=Nc2cnc(N)s2)c1 | 15.1
73 | Cc1cc(NC(=O)c2ccco2)sc1C | 18
74 | CCC(C)c1ccc(NC(=O)COC(=O)C2CCCC2)cc1 (stereo not given) | 10.7
75 | CCC1CCc2sc(C(=O)N(C)CC(=O)Nc3ccc(OC)cc3)cc2C1 (stereo not given) | 19.5

Row | SMILES | IC50 [µM]
76 | COc1ccc(C(=O)CC(=O)c2ccccc2O)cc1 | 15.1
77 | Cc1ccc(OCc2cc(C(=O)NC3CCCCC3)no2)cn1 | 15.4
78 | COc1cccc(/C=N/NC(=O)c2cc(C34CC5CC(CC(C5)C3)C4)[nH]n2)c1 | 10.9
79 | O=Cc1cnc2ccccc2c1-c1ccccc1 | 6.97
80 | CC1CCN(C(=O)c2ccc3c(c2)NC(=O)/C(=C/c2ccccc2)S3)CC1 | 13.6
81 | N#Cc1c(NC(=O)C2CC2)sc2c1CCCCC2 | 14.6
82 | COc1ccc(C(=O)N/N=C\c2coc3ccc(Cl)cc3c2=O)cc1 | 8.27
83 | COc1ccccc1-c1cc(C(=O)N/N=C/c2ccc(C)s2)c2ccccc2n1 | 18.8
84 | CCOC(=O)c1cnc(-n2nc(C)cc2C)nc1NCCc1ccccc1 | 9.75
85 | O=C(N/N=C/C=C\c1ccco1)c1cccs1 | 8.95
86 | c1ccc2[nH]c(-c3ccc4c(c3)OCO4)nc2c1 | 8.63
87 | COc1cccc(Nc2nc(-c3ccccc3)nc3ccccc23)c1 | 5.63
88 | O=c1c2cc(Br)ccc2nc(-c2ccccc2)n1O | 19.1
89 | CN1C(=O)/C(=C\c2ccco2)N=C1c1ccc(Cl)cc1Cl | 12.8
90 | O=C(Nc1ccc(F)c([N+](=O)[O-])c1)c1cccs1 | 15.3
91 | Cc1ccc(Nc2ccc([N+](=O)[O-])nc2[N+](=O)[O-])cc1 | 44.3
92 | COc1cccc(NC(=O)c2ccccc2)c1 | 11.3
93 | O=C(Nc1nc2c(F)cccc2s1)c1ccco1 | 16.7
94 | N#C/C(=C\c1ccc(O)cc1)c1nc2ccccc2o1 | 6.42
95 | O=Cc1ccccc1OCc1ccc2c(c1)OCO2 | 6.59
96 | CC1(C)CC2CC(C)(CN2C(=O)c2cc(-c3ccc(O)cc3)on2)C1 (stereo not given) | 15.3
97 | COc1ccc(-c2cc(-c3ccccc3)n[nH]2)c(O)c1 | 18.3
98 | O=C(CSc1cccc[n+]1[O-])Nc1ccccc1Oc1ccccc1 | 3.98
99 | O=C(Nc1nc(-c2cccs2)c(-c2ccccc2)s1)c1ccco1 | 11.5
100 | COc1cc(/C=C/[N+](=O)[O-])ccc1OC(=O)c1cc2ccccc2oc1=O | 4.02

Row | SMILES | IC50 [µM]
101 | O=C1c2cccc3c(Cl)ccc(c23)C(=O)N1O | 9.64
102 | O=C(N/N=C/c1ccco1)c1cc2ccccc2o1 | 8.47
103 | COc1ccc(NC(=O)C#Cc2ccccc2)cc1 | 6.06
104 | COC(=O)c1ccc(C(=O)OC)c(NC(=O)CSc2cccc[n+]2[O-])c1 | 4.4
105 | Cc1occc1C(=O)N/N=C/C(Br)=C\c1ccccc1 | 13.7
106 | Cc1cc(C)nc(SCC(=O)c2cc3ccccc3oc2=O)n1 | 9.91
107 | Cc1nc2ccc(NC(=O)c3cccs3)cc2c(=O)n1Cc1ccc(Cl)cc1 | 12
108 | O=C1/C(=C/c2cccs2)Cc2ccccc21 | 16.1
109 | O=c1c2ccccc2[nH]c(=S)n1CCN1CCC(=C(c2ccc(F)cc2)c2ccc(F)cc2)CC1 | 5.44
110 | N#C/C(C(N)=O)=c1/ccc2c(c1)N1C3=C(CCCC3)CC3CCCCC31N=2 (stereo not given) | 7.43
111 | CC1CCC(NC(=O)c2cc(C3CC3)nn2-c2ccccc2)CC1 (stereo not given) | 15.8
112 | O=C(Oc1ccc(=O)n(-c2ccccc2)n1)c1ccc(Cl)cc1 | 11.8
113 | N=c1c2c(-c3ccccc3)c(-c3ccccc3)n(Cc3ccco3)c2ncn1Cc1ccccc1 | 10.9
114 | CCc1cccc2c(C(=O)CCl)c[nH]c12 | 9.27
115 | Oc1ccccc1-c1cc(-c2cccc(F)c2)n[nH]1 | 13.2
116 | Cc1nc2ccc(C(C(F)(F)F)(C(F)(F)F)C(F)(F)F)cc2[nH]1 | 5.02
117 | O=C(Nc1cccc(Br)c1)C1CCCC1 | 7.64
118 | O=C(CCl)Nc1cccc(-c2cnc3ccccc3n2)c1 | 9.25
119 | O=C(/C=C/c1ccccc1)Oc1cccc2cccnc12 | 21.3
120 | COc1ccc(C(=O)c2sc(Nc3ccccc3F)nc2N)cc1 | 8.51
121 | O=C(Nc1ccc2oc(-c3ccccc3)nc2c1)c1cccnc1 | 5.53
122 | O=C(Nc1ccc2c(c1)OCCO2)c1cccc(Cl)c1 | 11.6
123 | Cc1csc2nc(O)c(C(=O)NC3CCCCC3C)c(=O)n12 (stereo not given) | 12.2
124 | Oc1ccc(/C=N/Nc2cccc(Cl)n2)c(O)c1 | 10.6
125 | COc1ccc(O)c(-c2cc(-c3cccs3)[nH]n2)c1 | 12.4
